In US9808004B2, “Synergistic combination to improve grape color and to alter sensory characteristics of wine” (Valent BioSciences Corporation, priority 2007, dated 2017):

Key:
[1] = tested on: red table grape cultivar 'Crimson Seedless'; assay: Replicated field experiment on Crimson Seedless table grapes: colour development (harvestable clusters), firmness, berry weight, Brix; Synergy Index; conditions: for Firmness: at harvest; for Cumulative harvestable clusters: foliar, veraison plus seven days, Crimson Seedless; for Effect on cumulative harvestable cluster number (in words): applied alone, dose-dependent, 88 to 877 mg/vine; for Dose acting alone which produced the end point (QA, QB): end point 24.7 cumulative harvestable clusters
From the text: The vineyard was 12 years old and on overhead trellis with a vine spacing of 12 ft by 7 ft (518 vines/acre). Plot size was three vines/replicate, with six replicates/treatments. The area evaluated within each plot was one center vine and two half vines on each side for a total of two vines. Applications were made seven days after veraison (beginning of berry softening). On the day of application, red coloration was developing on about 10% of the berries. […] All treatments were mixed with the adjuvant Latron B-1956 (0.05% v/v; Dow AgroSciences LLC, Indianapolis, Ind.). Treatments were applied with a backpack mist blower at 200 gallons/acre (757 l/acre).
The total grape clusters were counted on the day of application. After treatment, the plots were evaluated weekly for color development by counting the number of harvestable colored grape clusters in each plot. All harvestable colored clusters were removed 79 days later to eliminate over-mature clusters. The number of harvestable colored grape clusters was expressed as cumulative harvestable clusters (number of harvestable clusters per two vines). Average berry firmness, weight and Brix (soluble solids) were evaluated 5 days later. Evaluation samples consisted of 10 second shoulders (second lateral branch of the main rachis) from 10 different clusters selected randomly from each plot. All berries in the evaluation samples were removed, counted, and weighed. A sub-sample of 20 to 30 berries was crushed for brix (soluble solids) analysis. Brix was measured with a handheld temperature compensating Leica Refractometer. An additional 10 berries were selected randomly for berry firmness. Berry firmness was determined by a hand held Wilson Penetrometer (0 to 1000 g) mounted on a stand with a 6 mm tip.
Synergy was determined by an industrially accepted method (Kull et al., 1961, Applied Microbiology 9:538-541 and Robertson and Ramesh, 1998, U.S. Pat. No. 5,716,629). Synergy Index=Qa/QA+Qb/QB where:
Qa=dose of compound A in mg/vine, in the mixture, which produced an end point
QA=dose of compound A in mg/vine, acting alone, which produced an end point.
Qb=[…] of compound B in mg/vine, in the mixture, which produced an end point.
QB=dose of compound B in mg/vine, acting alone, which produced an end point.
Synergy, additivity, or antagonism are shown when the Synergy Index is less than one, equal to one, or greater than one, respectively.

[2] = Quality of wine from treated Cabernet Sauvignon grapes (colour density, phenolics, tasting panel score); parameters: species or system grape; conditions: for Wine assessment: tasting panel score from 5 characteristics (color intensity, aroma intensity, body/fullness, flavor intensity, finish), 200 ppm of each compound at veraison
Method: (§1) A replicated field experiment was conducted on the red wine grape cultivar ‘Cabernet Sauvignon’ in the Riverland growing region of South Australia. The vineyard was 19 years old with a vine spacing of 3 m by 3 m. The plot size was nine vines/replicate with three replicates/treatment. […] Treatments were mixed with the adjuvant Agral 600 (10 mL/100 L v/v; CropCare Australasia, Pty Ltd.).

[3] = tested on: red wine grape cultivar 'Cabernet Sauvignon'; assay: Replicated field experiment on Cabernet Sauvignon wine grapes: grape quality at harvest; format: in vivo; conditions: 200 ppm of each compound applied, foliar at veraison
Method: as §1

[4] = 88 mg/vine of each compound applied
[5] = 292 mg/vine of each compound applied
[6] = 200 ppm of each compound applied, foliar at veraison, Cabernet Sauvignon

Molecule | Firmness [1, 4] | Cumulative harvestable clusters [1, 4] | Cumulative harvestable clusters [1, 5] | Firmness ([1]; 877 mg/vine) | Cumulative harvestable clusters ([1]; 877 mg/vine) | Effect on cumulative harvestable cluster number (in words) [1] | Dose acting alone which produced the end point (QA, QB) [1] | Wine assessment [2] | Wine assessment ([2]; listed as ethephon) | Anthocyanins, grapes at harvest [3] | Anthocyanins, grapes at harvest ([3]; listed as ABA) | Wine color density [2, 6] | Wine phenolics [2, 6] | Wine color density ([2]; 200 ppm of each compound applied, foliar at veraison, Cabernet Sauvignon, listed as ABA) | Wine assessment ([2]; listed as ABA)
O=P(O)(O)CCCl [Ethephon] | 765 g | 9.2 no. per two vines | 15.7 no. per two vines | 709 g | 40.2 no. per two vines | increased | 484 mg/vine | 2.3 | did not affect | – | – | – | – | – | –
(S)-5-(1-hydroxy-2,6,6,-trimethyl-4-oxo-2-cyclohexen-1-yl)-3-methyl-(2Z,4E)-pentadienoic acid [S-ABA] | – | 11.8 no. per two vines | 38.0 no. per two vines | – | 43.8 no. per two vines | increased | 337 mg/vine | higher wine assessment score | – | lower than in the untreated | 0.78 mg/g | lower than in the untreated | 20.2 | 5.6 | 2.7
